Reference: ChEMBL document CHEMBL5338747, “Discovery of Quaternized Pyridine-Thiazole-Pleuromutilin Derivatives with Broad-Spectrum Antibacterial and Potent Anti-MRSA Activity” (J Med Chem, 2023)
Active and inactive are the calls of the source. No cut-off for these calls is given here.

Columns and labels:
Cell membrane [1] = assay: Disruption of bacterial cell membrane in methicillin-resistant Staphylococcus aureus ATCC 33591 assessed as increase in red fluorescence intensity at 4XMIC incubated for 2 hrs by MycoLightGreen1198/PI staining based confocal laser scanning microscopy; type: subcellular
Staphylococcus aureus [2] = assay: Antibacterial activity against methicillin-resistant Staphylococcus aureus ATCC 33591 infected in Kunming mouse assessed as reduction in bacterial load in lungs at 5 to 10 mg/kg, ip for 2 days starting from 1 hr post-infection by hematoxylin-eosin staining based analysis; type: functional, organism-based; conditions: dose 5-10 mg/kg, time 2.0 day
Cell membrane [3] = assay: Disruption of bacterial cell membrane in Escherichia coli ATCC 25922 assessed as severe depression on the cell surface,cell rupture and leakage of intracellular components at 4XMIC incubated for 4 hrs by FESEM analysis; type: subcellular
Escherichia coli [4] = assay: Bactericidal activity against Escherichia coli ATCC 25922 assessed as reduction in bacterial colonies formation at MIC incubated for 24 hrs in MHB followed by culturing on agar plate for 24 hrs by time-kill kinetics based analysis; type: functional; conditions: time 48 hrs
[5] = tested on: Mesomycoplasma hyopneumoniae; assay: Anti-mycoplasma activity against Mycoplasma hyopneumoniae J NCTC10110 assessed as inhibition of mycoplasma growth measured after 7 days by broth microdilution method; type: functional; conditions: J NCTC10110, 168 h, time 7 day
Cell membrane [6] = assay: Disruption of bacterial cell membrane in Escherichia coli ATCC 25922 assessed as increase in red fluorescence intensity at 4XMIC incubated for 2 hrs by MycoLightGreen1198/PI staining based confocal laser scanning microscopy
Mycoplasmopsis synoviae = assay: Anti-mycoplasma activity against Mycoplasma synoviae WVU1853 NCTC10124 assessed as inhibition of mycoplasma growth measured after 7 days by broth microdilution method; type: functional; conditions: WVU1853 NCTC10124, 168 h, time 7 day
Staphylococcus aureus [7] = assay: Antibacterial activity against methicillin-resistant Staphylococcus aureus ATCC 33591 infected in Kunming mouse assessed as reduction in number of inflammatory cells in liver at 10 mg/kg, ip for 2 days starting from 1 hr post-infection by hematoxylin-eosin staining based analysis; type: functional, organism-based; conditions: time 2.0 day
Cell membrane [8] = assay: Disruption of bacterial cell membrane in methicillin-resistant Staphylococcus aureus ATCC 33591 assessed as severe depression on the cell surface,cell rupture and leakage of intracellular components at 4XMIC incubated for 4 hrs by FESEM analysis; type: subcellular
[9] = Half-life in Sprague-Dawley rat at 1 mg/kg, iv by LC-MS analysis; type: ADME, organism-based; conditions: in vivo
Escherichia coli [10] = assay: Bactericidal activity against Escherichia coli ATCC 25922 assessed as reduction in bacterial colonies formation at 2XMIC incubated for 12 hrs in MHB followed by culturing on agar plate for 24 hrs by time-kill kinetics based analysis; type: functional; parameters: scale not given: the % may be the effect or the level left; conditions: time 36 hrs
[11] = Metabolic stability in Sprague-Dawley rat assessed as parent compound remaining at 3 mg/kg, po measured after 10 mins by LC-MS analysis; type: ADME, organism-based; conditions: in vivo, read-out: Stability
Cell membrane [12] = assay: Disruption of bacterial cell membrane in methicillin-resistant Staphylococcus aureus ATCC 33591 incubated for 4 hrs by FESEM analysis; type: subcellular
Escherichia coli [13] = assay: Disruption of biofilm formation in Escherichia coli ATCC 25922 assessed as inhibition of biofilm formation at 4XMIC measured after 24 hrs by crystal violet staining based analysis; type: functional
Staphylococcus aureus [14] = assay: Antibacterial activity against methicillin-resistant Staphylococcus aureus ATCC 33591 infected in Kunming mouse assessed as animal survival rate at 3 mg/kg, ip for 7 days starting from 1 hr post-infection; type: functional; conditions: ATCC 33591, 168 h, time 7 day
[15] = MRT in Sprague-Dawley rat at 1 mg/kg, iv by LC-MS analysis; type: ADME, organism-based; conditions: in vivo
Staphylococcus aureus [16] = assay: Antibacterial activity against methicillin-resistant Staphylococcus aureus ATCC 33591 infected in ip dosed Kunming mouse assessed as protection against bacterial infection administered for 7 days starting from 1 hr post-infection; type: functional
Cell membrane [17] = assay: Disruption of bacterial cell membrane in Escherichia coli ATCC 25922 assessed as increase in fluorescence intensity at 8XMIC measured within 3 mins by DiBAC4(3) dye based fluorescence analysis relative to control
Cell membrane [18] = assay: Disruption of bacterial cell membrane in Escherichia coli ATCC 25922 assessed as increase in number of surface folds and atrophy at MIC incubated for 4 hrs by FESEM analysis
Mesomycoplasma hyorhinis = assay: Anti-mycoplasma activity against Mycoplasma hyorhinis BTS-7 NCTC10130 assessed as inhibition of mycoplasma growth measured after 7 days by broth microdilution method; type: functional; conditions: BTS-7 NCTC10130, 168 h, time 7 day
Cell membrane [19] = assay: Disruption of bacterial cell membrane in methicillin-resistant Staphylococcus aureus ATCC 33591 assessed as increase in number of surface folds and atrophy at MIC incubated for 4 hrs by FESEM analysis; type: subcellular
[20] = Volume of distribution at steady state in Sprague-Dawley rat at 1 mg/kg, iv by LC-MS analysis; type: ADME, organism-based; conditions: in vivo, read-out: Vdss
Staphylococcus aureus [21] = assay: Antibacterial activity against methicillin-resistant Staphylococcus aureus ATCC 43300 assessed as inhibition of bacterial growth incubated for 24 hrs by broth microdilution method; type: functional
Staphylococcus aureus [22] = assay: Potency index, ratio of moxifloxacin MIC to test compound MIC for antibacterial activity against methicillin-resistant Staphylococcus aureus 171; type: functional
Cell membrane [23] = assay: Disruption of bacterial cell membrane in methicillin-resistant Staphylococcus aureus ATCC 33591 assessed as increase in fluorescence intensity at 8XMIC measured within 3 mins by DiBAC4(3) dye based fluorescence analysis relative to control; type: subcellular
[24] = tested on: Staphylococcus epidermidis; assay: Antibacterial activity against methicillin-resistant Staphylococcus epidermidis ATCC 51625 assessed as inhibition of bacterial growth incubated for 24 hrs by broth microdilution method; type: functional
Escherichia coli [25] = assay: Bactericidal activity against Escherichia coli ATCC 25922 assessed as reduction in bacterial colonies formation at 4XMIC incubated for 4 hrs in MHB followed by culturing on agar plate for 24 hrs by time-kill kinetics based analysis; type: functional; parameters: scale not given: the % may be the effect or the level left; conditions: time 28 hrs
[26] = Drug metabolism in Sprague-Dawley rat plasma assessed as metabolite formation at 10 mg/kg, iv measured after 1 hr by UPLC/Q-TOF-MS analysis; type: ADME, organism-based; conditions: in vivo
[27] = Cytotoxicity against human HepG2 cells assessed as reduction in cell viability measured after 48 hrs by CCK8 assay; type: toxicity, cell-based
[28] = tested on: Mycoplasmoides pneumoniae; assay: Anti-mycoplasma activity against Mycoplasma pneumoniae M129 ATCC15531 assessed as inhibition of mycoplasma growth measured after 7 days by broth microdilution method; type: functional; conditions: M129 ATCC15531, 168 h, time 7 day
Staphylococcus aureus [29] = assay: Antibacterial activity against methicillin-resistant Staphylococcus aureus ATCC 33591 infected in Kunming mouse assessed as reduction in bacterial load in liver at 5 to 10 mg/kg, ip for 2 days starting from 1 hr post-infection by hematoxylin-eosin staining based analysis; type: functional, organism-based; conditions: dose 5-10 mg/kg, time 2.0 day
Salmonella enterica = assay: Antibacterial activity against Salmonella enterica ATCC 14028 assessed as inhibition of bacterial growth incubated for 24 hrs by broth microdilution method; type: functional
[30] = Cytotoxicity against human A549 cells assessed as reduction in cell viability measured after 48 hrs by CCK8 assay; type: toxicity, cell-based

C=C[C@]1(C)C[C@@H](OC(=O)CSc2nc(-c3cc[n+](Cc4ccc(C)cc4)cc3)cs2)[C@]2(C)[C@H](C)CC[C@]3(CCC(=O)[C@H]32)[C@@H](C)[C@@H]1O.[Br-]
Activity (Cell membrane [1]): 100% | Activity (Staphylococcus aureus [2]): Active | Activity (Cell membrane [3]): Active | Activity (Escherichia coli [4]): 6.98 log10CFU/ml | MIC [5]: 0.004 µg/mL | Activity (Cell membrane [6]): 100% | MIC (Mycoplasmopsis synoviae): 0.015 µg/mL | Activity (Staphylococcus aureus [7]): Active | Activity (Cell membrane [8]): Active | half-life [9]: 43.8 min | Activity (Escherichia coli [10]): 100% | remaining at 10 min [11]: 0% | Activity (Cell membrane [12]): Dose-Dependent Effect | inhibition (INH) (Escherichia coli [13]): 84.02% | survival at 3 mg/kg (Staphylococcus aureus [14]): 42.9% | MRT [15]: 34.8 min | ED50 (Staphylococcus aureus [16]; ATCC 33591, 168 h, time 7 day): 4.94 mg/kg | Activity (Staphylococcus aureus [16]; time 7.0 day): Dose-Dependent Effect | fold change (FC) (Cell membrane [17]): 6 | Activity (Cell membrane [18]): Active | MIC (Mesomycoplasma hyorhinis): 0.008 µg/mL | Activity (Cell membrane [19]): Active | Vd [20]: 2.1 L/kg | MIC (Staphylococcus aureus [21]): 0.5 µg/mL | Ratio (Staphylococcus aureus [22]): 8 | fold change (FC) (Cell membrane [23]): 6 | MIC [24]: 1 µg/mL | Activity (Escherichia coli [25]): 100% | Drug metabolism [26]: Metabolite_Detected | CC50 at 48 h [27]: 89.8 µM | MIC [28]: 0.03 µg/mL | Activity (Staphylococcus aureus [29]): Active | MIC (Salmonella enterica): 2 µg/mL | CC50 at 48 h [30]: > 100 µM
